For data set [1], the system named is T1, CTL2-GFP (C. trachomatis L2/434/Bu, GFP-expressing).
T1 construct: L2/434/Bu, GFP-expressing
Description: microbe, parasite or virus in culture. Details: Intracellular C. trachomatis growth in HeLa cells, bulk GFP fluorescence relative to DMSO. The conditions noted are these: Chlamydia trachomatis, HeLa, 28.5 h; bulk GFP, mean of 2; read-out: % of control remaining. The protocol: MICs were calculated as described above.

The nature of data set [2]: in vitro. The conditions noted are these: human, hela cells; bulk resorufin, mean of 2. Also noted: Viability of infected HeLa host cells, resazurin conversion, bulk resorufin fluorescence relative to DMSO.
For data set [3], the system named is T2, C. trachomatis L2/434/Bu expressing GFP (CTL2-GFP).
T2 construct: L2/434/Bu GFP intracellular growth in HeLa cells
Description: microbe, parasite or virus in culture. Details: C. trachomatis total inclusion area by high-content imaging, normalised to DMSO. The conditions noted are these: Chlamydia trachomatis, HeLa, 28.5 h; total inclusion area; read-out: % of control remaining. The source says:
We screened a library of 36,785 small molecules displaying drug-like properties and covering a wide chemical space (Fig 1A and S2A Data). In this process, we also complemented the assay described above with an imaging-based readout (Fig 1B). After measurements of bulk GFP and resorufin fluorescence, cells were fixed, stained with the DNA dye Hoechst, and imaged at a high-content imaging platform to detect chlamydial inclusions (GFP) and host cell nuclei (Hoechst). The total area and number of inclusions in individual wells and the number of nuclei then served as additional proxies for chlamydial growth and host cell viability. […] MICs were calculated as described above.

A short description of data set [4]: in vitro. To be noted: human, hela cells, % viability.

`c1ccc(-c2nc3cc4ccccc4cc3[nH]2)nc1` [CBK000130]: in data set [1], the activity at 1 µM turned out to be 133%, the activity at 5 µM stood at 40.2% and the activity at 10 µM turned out to be 18.3%. For the same molecule, in data set [2], the viability (commonly a read-out of living cells in per cent, often relative to untreated cells) at 28.5 h, 1 µM worked out at 99.1%; the viability at 28.5 h, 5 µM was 95.7%; the viability at 28.5 h, 10 µM worked out at 90.5%. In data set [3], the activity at 1 µM was determined as 98.2%, the activity at 5 µM was 31.5% and the activity at 10 µM was determined as 14.1%.

As for `N#CC(CCCN1CCN(c2ccccc2)CC1)(c1ccccc1)c1ccccc1` [CBK002243C], in data set [1], the activity at 1 µM worked out at 106%, the activity at 5 µM was found to be 74% and the activity at 10 µM was determined as 41.5%. Further, in data set [2], the viability at 28.5 h, 1 µM was found to be 99.6%; the viability at 28.5 h, 5 µM stood at 105%; the viability at 28.5 h, 10 µM was 118%. For the same molecule, in data set [3], the activity at 1 µM came out at 42.5%, the activity at 5 µM turned out to be 23.5% and the activity at 10 µM is 17.3%.

Turning to `NC(Cc1ccccc1)CN(CC1(c2ccc(Cl)cc2)CC1)C(=O)Nc1ccc2c(c1)OCO2` (stereo not shown) [CBK002342C], in data set [1], the activity at 1 µM worked out at 211%, the activity at 5 µM was determined as 102% and the activity at 10 µM amounted to 98.8%. Besides, in data set [2], the viability at 28.5 h, 1 µM worked out at 95.3%; the viability at 28.5 h, 5 µM was 95.4%; the viability at 28.5 h, 10 µM came to 93.5%. Moreover, in data set [3], the activity at 1 µM came to 109%, the activity at 5 µM came out at 43.5% and the activity at 10 µM stood at 54%.

Regarding `CC(C)(CN)CN(Cc1c[nH]c(-c2ccccc2)n1)C(=O)Nc1ccc(C(C)(C)C)cc1` [CBK002462C], in data set [1], the activity at 1 µM amounted to 139%, the activity at 5 µM came to 101% and the activity at 10 µM was 29.5%. Besides, in data set [2], the viability at 28.5 h, 1 µM amounted to 91.6%; the viability at 28.5 h, 5 µM is 89.2%; the viability at 28.5 h, 10 µM was 72.5%. For the same molecule, in data set [3], the activity at 1 µM turned out to be 106%, the activity at 5 µM turned out to be 55.9% and the activity at 10 µM is 29%.

For the molecule `CN(C)[C@H]1CCC[C@@H]1C(=O)Nc1ccc(Cl)c(Cl)c1` [CBK003406], in data set [1], the activity at 1 µM turned out to be 90.9%, the activity at 5 µM came to 67.2% and the activity at 10 µM was 13%. Further, in data set [2], the viability at 28.5 h, 1 µM was 105%; the viability at 28.5 h, 5 µM worked out at 109%; the viability at 28.5 h, 10 µM was 107%. In data set [3], the activity at 1 µM amounted to 112%, the activity at 5 µM was 76.4% and the activity at 10 µM came to 20.8%.

In the case of `C[C@@H]1CN(c2ccc(C(F)(F)F)c(OCc3ccccc3)n2)CCN1` [CBK003987A], in data set [1], the activity at 1 µM came to 110%, the activity at 5 µM is 90.5% and the activity at 10 µM was determined as 35%. Moreover, in data set [2], the viability at 28.5 h, 1 µM amounted to 102%; the viability at 28.5 h, 5 µM is 98.9%; the viability at 28.5 h, 10 µM was determined as 113%. Moreover, in data set [3], the activity at 1 µM turned out to be 70.4%, the activity at 5 µM came to 53.4% and the activity at 10 µM was 17.6%.

As for `CCOc1ccsc1C(=O)Nc1cc(C)ccn1` [CBK004029], in data set [1], the activity at 1 µM was determined as 122%, the activity at 5 µM stood at 61.7% and the activity at 10 µM is 32.4%. In addition, in data set [2], the viability at 28.5 h, 1 µM was 92.3%; the viability at 28.5 h, 5 µM was determined as 92.3%; the viability at 28.5 h, 10 µM was 71.7%. Moreover, in data set [3], the activity at 1 µM worked out at 116%, the activity at 5 µM came out at 64.9% and the activity at 10 µM turned out to be 19.7%.

As for `Cc1cccc(N(C)S(=O)(=O)c2ccc(N3CCCNCC3)c3ccccc23)c1C` [CBK004430C], in data set [1], the activity at 1 µM was determined as 142%, the activity at 5 µM is 95.8% and the activity at 10 µM came to 45.1%. In data set [2], the viability at 28.5 h, 1 µM stood at 89.7%; the viability at 28.5 h, 5 µM worked out at 84.9%; the viability at 28.5 h, 10 µM came out at 88.8%. Besides, in data set [3], the activity at 1 µM turned out to be 121%, the activity at 5 µM turned out to be 56.7% and the activity at 10 µM worked out at 8.36%.

On to `COc1cccc(CNC(C(=O)O)c2ccc3c(c2)OCO3)c1` (stereo not shown) [CBK015420D], for which, in data set [1], the activity at 1 µM was 107%, the activity at 5 µM was 30.9% and the activity at 10 µM worked out at 12.5%. In data set [2], the viability at 28.5 h, 1 µM turned out to be 92.7%; the viability at 28.5 h, 5 µM was 92.5%; the viability at 28.5 h, 10 µM stood at 87.4%. In data set [3], the activity at 1 µM worked out at 103%, the activity at 5 µM was determined as 49.9% and the activity at 10 µM is 20.3%.

Regarding `CC(Oc1cccc2ccccc12)C(=S)N(C)c1ccccc1` (stereo not shown) [CBK016158], in data set [1], the activity at 1 µM is 98.8%, the activity at 5 µM was determined as 81.4% and the activity at 10 µM came to 67.6%. Also, in data set [2], the viability at 28.5 h, 1 µM is 113%; the viability at 28.5 h, 5 µM was 117%; the viability at 28.5 h, 10 µM was found to be 107%. In data set [3], the activity at 1 µM was 105%, the activity at 5 µM stood at 98.3% and the activity at 10 µM came out at 84.8%.

As for `Cc1cc(Br)ccc1S(=O)(=O)N(C)c1ccc(N2CCNCC2)c2ccccc12` [CBK016170C], in data set [1], the activity at 1 µM came to 106%, the activity at 5 µM stood at 75.3% and the activity at 10 µM came to 35.2%. In addition, in data set [2], the viability at 28.5 h, 1 µM was found to be 91.8%; the viability at 28.5 h, 5 µM turned out to be 92.1%; the viability at 28.5 h, 10 µM was determined as 112%. Further, in data set [3], the activity at 1 µM is 63.9%, the activity at 5 µM worked out at 26.9% and the activity at 10 µM was found to be 12.9%.

On to `CCC1C(c2ccc(C)cc2)=CCC(C(=O)NCCCN(C)C)C1C` (stereo not shown) [CBK016514], for which, in data set [1], the activity at 1 µM turned out to be 112%, the activity at 5 µM turned out to be 33.9% and the activity at 10 µM came to 9.47%. Moreover, in data set [2], the viability at 28.5 h, 1 µM was determined as 104%; the viability at 28.5 h, 5 µM came out at 88.9%; the viability at 28.5 h, 10 µM is 100%. In data set [3], the activity at 1 µM was 109%, the activity at 5 µM turned out to be 44.4% and the activity at 10 µM came to 8.47%.

In the case of `CCCN(CCC)CCc1cccc2c1CCN2C(=O)c1cc2ccccc2s1` [CBK017871C], in data set [1], the activity at 1 µM amounted to 42.3%, the activity at 5 µM was determined as 18.2% and the activity at 10 µM worked out at 9.45%. Moreover, in data set [2], the viability at 28.5 h, 1 µM was 96.8%; the viability at 28.5 h, 5 µM amounted to 96.9%; the viability at 28.5 h, 10 µM was 97.3%. Moreover, in data set [3], the activity at 1 µM was determined as 58%, the activity at 5 µM was 26.8% and the activity at 10 µM was 2.13%.

For the molecule `COc1ccccc1N/C(=N\OCc1ccc(Cl)cc1Cl)c1nonc1N` [CBK018391], in data set [1], the activity at 1 µM is 137%, the activity at 5 µM was found to be 122% and the activity at 10 µM was determined as 103%. In data set [2], the viability at 28.5 h, 1 µM worked out at 90.7%; the viability at 28.5 h, 5 µM was determined as 92.4%; the viability at 28.5 h, 10 µM is 94.7%. Also, in data set [3], the activity at 1 µM amounted to 89.5%, the activity at 5 µM is 84% and the activity at 10 µM was 56.1%.

Take `Cc1ccc2cc(CN3CCCC(N)CC3)c(N3CCOCC3)nc2c1` (stereo not shown) [CBK307693]: the viability at 28.5 h, 10 µM in data set [4] is 83.5%.

Regarding `CCn1ccc(C(=O)NC(c2cncc(OC)c2)[C@H]2C[C@@H](O)C2)cc1=O` (stereo partly shown) [CBK307696], in data set [4], the viability at 28.5 h, 10 µM was determined as 110%.

Turning to `COCCn1c(CO)nnc1[C@H]1C[C@@H](NC(=O)c2cc(O)ccc2F)C1` [CBK307698], the viability at 28.5 h, 10 µM in data set [4] was 90.4%.

With `Cc1ccc(F)c(CN2CCN(CCO)[C@@H]3CS(=O)(=O)C[C@@H]32)c1` [CBK307699], in data set [4], the viability at 28.5 h, 10 µM turned out to be 93.6%.

Turning to `CC(C)N(C(=O)c1ccccc1-c1cnn2cccnc12)C(C)C` [CBK307701], the viability at 28.5 h, 10 µM in data set [4] is 85.4%.

Consider `CNc1ncc(CN(C)C(=O)Cn2nc(C)c3ccccc3c2=O)cn1` [CBK307704], for which, in data set [4], the viability at 28.5 h, 10 µM worked out at 85.5%.

Regarding `COCCN(CCOC)C(=O)Nc1ccc(F)c(NC(C)=O)c1` [CBK307705], the viability at 28.5 h, 10 µM in data set [4] was 98.2%.

Regarding `CCOCc1nc2c(c(NCCn3cccn3)n1)CCN(C(C)=O)CC2` [CBK307707], the viability at 28.5 h, 10 µM in data set [4] is 98.3%.

On to `CCN(Cc1cccc(C(=O)O)c1)Cc1noc(C2CCC2)n1` [CBK307708], for which the viability at 28.5 h, 10 µM in data set [4] is 102%.

Regarding `Cc1ncsc1CCN(C)C(C)C(=O)Nc1nccs1` (stereo not shown) [CBK307709], the viability at 28.5 h, 10 µM in data set [4] was 109%.

As to `CCC(O)c1nc(CCSC)nn1-c1cc(=O)n(C)c2ccccc12` (stereo not shown) [CBK307711], the viability at 28.5 h, 10 µM in data set [4] came out at 90.5%.

In the case of `CC(C)n1cnnc1CN1CCN(c2ccc(C#N)cc2)CC1` [CBK307714], the viability at 28.5 h, 10 µM in data set [4] was determined as 106%.

With `CCS(=O)(=O)CCNC(=O)c1cnc(N2CCCCC2)nc1C` [CBK307715], the viability at 28.5 h, 10 µM in data set [4] stood at 82.9%.

For `Cc1nn(C)c(Cl)c1CN1CCCC(CCC(=O)N2CCN(C)CC2)C1` (stereo not shown) [CBK307716], the viability at 28.5 h, 10 µM in data set [4] came out at 92.5%.

`Cc1ccc(OCc2occc2C(=O)N2CCc3[nH]cnc3C2)cc1` [CBK307717]: the viability at 28.5 h, 10 µM in data set [4] was 85.6%.

`CC(=O)Nc1ccc(CNC(=O)CN2CCCC(c3ncc[nH]3)C2)cc1` (stereo not shown) [CBK307718]: in data set [4], the viability at 28.5 h, 10 µM is 96.5%.
